From patent US5310881A, “Glycosaminoglycan-modified protein” (Seikagaku Corporation, priority 1990, dated 1994)

Tested on: mouse ischemic foot edema
Test: Effect on mouse ischemic foot edema
Type: in vivo, ddy male mouse
Settings: given just before ischemia, HA 26.71 mg
Description: A ddy male mouse aged 8 weeks is kept in a keeping device and the right hind leg is tied around with a suture (Brain No. 2). One end of the suture is fixed while a weight of 500 g is suspended from another end of the suture. Thus, ischemia is conducted for a definite period of time. Before the ischemia and 60 minutes thereafter, the thickness of the foot-pad of the animal was measured with slide calipers. Then, the foot-pad is cut and weighed. To a control group, a physiological saline is intravenously administered immediately before the initiation of the ischemia. To test groups, specimen shown in Table 6 was administered 30 minutes before the initiation of the ischemia and immediately before the same. Each group has 5 animals. The catarase used as a specimen was originated from bovine liver. The HA-catalase used was prepared as follows. 10 mg of the HA-catalase of lot No. 120-1 was dissolved in 5.2 ml of a physiological saline and filtered through a membrane of 0.22 μm (Milex GV; mfd. by Nippon Millipore Kogyo K.K.). 1 ml portions of the filtrate were distributed to ampuls to give a preparation for injection. The preparation contained 600 U of the enzyme per ampul.
The effects were calculated in accordance with the following equations. [formula] It is believed that a sample showing A of 40 or more is effective. [formula] It is believed that a sample showing A of 60 or more is effective.

Substance: hyaluronic acid [HA]
- Effect A: 22
- Effect B: 35
